The values below are quoted from earlier work in patent US12324852B2, “Administration of benzodiazepine compositions” (Neurelis, Inc., priority 2011, dated 2025).

With `Cc1ncc2n1-c1ccc(Cl)cc1C(c1ccccc1F)=NC2` [Midazolam, 8-chloro-6-(2-fluorophenyl)-1-methyl-4H-imidazo(1,5-a)benzodiazepine], for the setting “neutral pH (e.g. about 6 to 8)”, the “solubility in most aqueous solutions” value is on record as “relatively insoluble”. Moreover, the solubility in water entry (pH lower than about 4) is listed as “soluble in water”.
